Experimental data: PubChem BioAssay AID330 (DTP/NCI, 2004)
Several values for one entry are separate records, joined by “and”; a condition that tells them apart may be missing. Identical values can stand only once. Inconclusive results and toxic doses are left out.

Tested on: P388 leukemia ip, CD2F1 mice, survival T/C
Experiment: NCI In Vivo Anticancer Drug Screen. Data for tumor model P388 Leukemia (intraperitoneal) in CD2F1 (CDF1) mice
Details: endpoint: median survival time, higher = longer survival
Method in brief: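 Mice carrying the transplanted tumor received test compound or vehicle. Survival was recorded in each group, and the value is the treated-group measurement divided by that of the vehicle-treated control group.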

SMILES: CN1C(=O)c2c(ccc3c2OCO3)[C@@]2(C)C(=O)Cc3cc4c(cc3[C@H]12)OCO4
- T/C (dose: 6.25 mg/kg/injection, schedule: Q01DX005 (ip), vehicle: Klucel (hydroxypropylcellulose) (HPC)): 89 % of control
- T/C (dose: 12.5 mg/kg/injection, schedule: Q01DX005 (ip), vehicle: Klucel (hydroxypropylcellulose) (HPC)): 88 % of control

SMILES: CCC1(O)CC2CN(CCc3c([nH]c4ccccc34)C(C(=O)OC)(c3cc4c(cc3OC)N(C)C3C(O)(C(=O)NCCSSCCNC(=O)C5(O)C(O)C6(CC)C=CCN7CCC8(c9cc(C%10(C(=O)OC)CC%11CN(CCc%12c%10[nH]c%10ccccc%12%10)CC(O)(CC)C%11)c(OC)cc9N(C)C58)C76)C(O)C5(CC)C=CCN6CCC43C65)C2)C1 (centres undefined)
- T/C (dose: 0.1 mg/kg/injection, schedule: Q01DX009 (ip), vehicle: saline): 166 % of control
- T/C (dose: 0.19 mg/kg/injection, schedule: Q04DX003 (ip), vehicle: saline): 151 % of control
- T/C (dose: 0.2 mg/kg/injection, schedule: Q01DX009 (ip), vehicle: saline): 202 % of control
- T/C (dose: 0.31 mg/kg/injection, schedule: Q04DX003 (ip), vehicle: saline): 170 % of control
- T/C (dose: 0.38 mg/kg/injection, schedule: Q04DX003 (ip), vehicle: saline): 183 % of control
- T/C (dose: 0.39 mg/kg/injection, schedule: Q04DX003 (ip), vehicle: saline): 186 % of control
- T/C (dose: 0.4 mg/kg/injection, schedule: Q01DX009 (ip), vehicle: saline): 227 % of control
- T/C (dose: 0.63 mg/kg/injection, schedule: Q04DX003 (ip), vehicle: saline): 190 % of control
- T/C (dose: 0.7 mg/kg/injection, schedule: Q04DX003 (ip), vehicle: saline): 161 % of control
- T/C (dose: 0.75 mg/kg/injection, schedule: Q04DX003 (ip), vehicle: saline): 209 % of control and 228 % of control
- T/C (dose: 1.0 mg/kg/injection, schedule: Q04DX003 (ip), vehicle: saline): 212 % of control
- T/C (dose: 1.25 mg/kg/injection, schedule: Q04DX003 (ip), vehicle: saline): 208 % of control
- T/C (dose: 1.6 mg/kg/injection, schedule: Q04DX003 (ip), vehicle: saline): 231 % of control
- T/C (dose: 2.4 mg/kg/injection, schedule: Q04DX003 (ip), vehicle: saline): 119 % of control
- T/C (dose: 2.5 mg/kg/injection, schedule: Q04DX003 (ip), vehicle: saline): 236 % of control

SMILES: COc1ccc(OC)c(NC(=O)CCCC(=O)C(C#N)c2ccc(CC#N)cc2)c1 (centres undefined)
- T/C (dose: 60.0 mg/kg/injection, schedule: Q01DX005 (ip), vehicle: saline with Tween-80): 98 % of control
- T/C (dose: 120.0 mg/kg/injection, schedule: Q01DX005 (ip), vehicle: saline with Tween-80): 98 % of control
- T/C (dose: 240.0 mg/kg/injection, schedule: Q01DX005 (ip), vehicle: saline with Tween-80): 103 % of control

SMILES: CCCCCCCCCCCC1C=CCC1 (centres undefined)
- T/C (dose: 100.0 mg/kg/injection, schedule: Q01DX001 (ip), vehicle: saline): 99 % of control
- T/C (dose: 200.0 mg/kg/injection, schedule: Q01DX001 (ip), vehicle: saline): 100 % of control
- T/C (dose: 400.0 mg/kg/injection, schedule: Q01DX001 (ip), vehicle: saline): 100 % of control

SMILES: CCOC=C1C(=O)N(C)C(=O)N(C)C1=O
- T/C (dose: 50.0 mg/kg/injection, schedule: Q01DX009 (ip), vehicle: saline with Tween-80): 106 % of control
- T/C (dose: 100.0 mg/kg/injection, schedule: Q01DX009 (ip), vehicle: saline with Tween-80): 106 % of control
- T/C (dose: 200.0 mg/kg/injection, schedule: Q01DX009 (ip), vehicle: saline with Tween-80): 108 % of control

SMILES: CCOC(=O)C(C(=O)OCC)n1c(=O)c2c(ncn2C)n(C)c1=O
- T/C (dose: 100.0 mg/kg/injection, schedule: Q01DX001 (ip), vehicle: Klucel (hydroxypropylcellulose) (HPC)): 110 % of control
- T/C (dose: 200.0 mg/kg/injection, schedule: Q01DX001 (ip), vehicle: Klucel (hydroxypropylcellulose) (HPC)): 101 % of control
- T/C (dose: 400.0 mg/kg/injection, schedule: Q01DX001 (ip), vehicle: Klucel (hydroxypropylcellulose) (HPC)): 105 % of control

SMILES: CC(C)(O)Cn1ccccc1=O
- T/C (dose: 100.0 mg/kg/injection, schedule: Q04DX003 (ip), vehicle: saline): 98 % of control
- T/C (dose: 200.0 mg/kg/injection, schedule: Q04DX003 (ip), vehicle: saline): 97 % of control
- T/C (dose: 400.0 mg/kg/injection, schedule: Q04DX003 (ip), vehicle: saline): 104 % of control

SMILES: N=C(N)c1ccc2cc(/C=C/c3cc4ccc(C(=N)N)cc4o3)oc2c1
- T/C (dose: 100.0 mg/kg/injection, schedule: Q04DX003 (ip), vehicle: suspension in saline): 112 % of control
- T/C (dose: 200.0 mg/kg/injection, schedule: Q04DX003 (ip), vehicle: suspension in saline): 120 % of control
